From ChEMBL document CHEMBL1133979, “1,2,4-triazolo[3,4-a]pyridine as a novel, constrained template for fibrinogen receptor (GPIIb/IIIa) antagonists” (Bioorg Med Chem Lett, 2001) come the findings set out here.

System in the first data set: not listed separately
In words: Half life in dog. The data set is classed as ADME, organism-based, Canis lupus familiaris. The conditions noted are these: in vivo.
In turn, `O=C(O)C[C@H](NC(=O)[C@@H]1CCCN(C(=O)CCC2CCNCC2)C1)c1cccnc1` [ELAROFIBAN] gave a half-life of 5 h.

System in a further data set: not listed separately
In words: Oral bioavailability in dog. The data set is classed as ADME, organism-based, Canis lupus familiaris. The conditions noted are these: in vivo.
In turn, `O=C(O)C[C@H](NC(=O)C1CCCn2c(/C=C/C3CCNCC3)nnc21)c1cccnc1` (stereo not given in full) displayed a bioavailability of 31%.
As for `O=C(N[C@@H](CNC(=O)C1CCCn2c(/C=C/C3CCNCC3)nnc21)C(=O)O)OCc1ccccc1` (stereo not given in full), the bioavailability is 23%.

The same data set, now with this note: in vivo, read-out: Bioavailabiility.
With `O=C(O)C[C@H](NC(=O)[C@@H]1CCCN(C(=O)CCC2CCNCC2)C1)c1cccnc1` [ELAROFIBAN], the bioavailability is 16%.

In a further data set the test system is Canis familiaris. In words: Ex vivo oral duration for maintaining at least 50% inhibition of platelet aggregation induced by adenosine diphosphate after administration at a dose of at 1 mg/kg. In kind it is functional, Canis lupus familiaris.
Conditions: not given; call rule not given here
Compound `O=C(O)C[C@H](NC(=O)C1CCCn2c(CCC3CCNCC3)nnc21)c1cccnc1` (stereo not given in full) returned an Oral duration of 3 h.
Regarding `O=C(O)C[C@H](NC(=O)C1CCCn2c(/C=C/C3CCNCC3)nnc21)c1cccnc1` (stereo not given in full), the Oral duration is over 6 h.
Same read-out and setting: the value for `O=C(N[C@@H](CNC(=O)C1CCCn2c(/C=C/C3CCNCC3)nnc21)C(=O)O)OCc1ccccc1` (stereo not given in full) was over 6 h.
`O=C(NC[C@H](NS(=O)(=O)Cc1ccccc1)C(=O)O)C1CCCn2c(/C=C/C3CCNCC3)nnc21` (stereo not given in full) displayed an Oral duration of under 0.5 h.
In turn, `O=C(N[C@@H](CNC(=O)[C@@H]1CCCN(C(=O)CCC2CCNCC2)C1)C(=O)O)OCc1ccccc1` displayed an Oral duration of 3 h.
The same measure, in the same setting: under `O=C(N[C@@H](CNC(=O)C1CCCn2c(CCC3CCNCC3)nnc21)C(=O)O)OCc1ccccc1` (stereo not given in full) stands 4 h; under `O=C(O)C[C@H](NC(=O)C1CCCn2c(/C=C/C3CCNCC3)nnc21)c1cnc2ccccc2c1` (stereo not given in full), 4.5 h; under `CC1(C(=O)NC[C@H](NC(=O)OCc2ccccc2)C(=O)O)CCCn2c(CCC3CCNCC3)nnc21` (stereo not given in full), under 0.5 h.
Still for that read-out and setting: under `O=C(O)C[C@H](NC(=O)[C@@H]1CCCN(C(=O)CCC2CCNCC2)C1)c1cccnc1` [ELAROFIBAN] stands 5 h.

The target of the next data set is T1, Integrin alpha-IIb/beta-3 (Homo sapiens, UniProt P05106+P08514). In words: Inhibition of biotinylated fibrinogen binding to immobilized integrin GPIIb/IIIa.
T1 sequence (P05106 27-788 limits assumed): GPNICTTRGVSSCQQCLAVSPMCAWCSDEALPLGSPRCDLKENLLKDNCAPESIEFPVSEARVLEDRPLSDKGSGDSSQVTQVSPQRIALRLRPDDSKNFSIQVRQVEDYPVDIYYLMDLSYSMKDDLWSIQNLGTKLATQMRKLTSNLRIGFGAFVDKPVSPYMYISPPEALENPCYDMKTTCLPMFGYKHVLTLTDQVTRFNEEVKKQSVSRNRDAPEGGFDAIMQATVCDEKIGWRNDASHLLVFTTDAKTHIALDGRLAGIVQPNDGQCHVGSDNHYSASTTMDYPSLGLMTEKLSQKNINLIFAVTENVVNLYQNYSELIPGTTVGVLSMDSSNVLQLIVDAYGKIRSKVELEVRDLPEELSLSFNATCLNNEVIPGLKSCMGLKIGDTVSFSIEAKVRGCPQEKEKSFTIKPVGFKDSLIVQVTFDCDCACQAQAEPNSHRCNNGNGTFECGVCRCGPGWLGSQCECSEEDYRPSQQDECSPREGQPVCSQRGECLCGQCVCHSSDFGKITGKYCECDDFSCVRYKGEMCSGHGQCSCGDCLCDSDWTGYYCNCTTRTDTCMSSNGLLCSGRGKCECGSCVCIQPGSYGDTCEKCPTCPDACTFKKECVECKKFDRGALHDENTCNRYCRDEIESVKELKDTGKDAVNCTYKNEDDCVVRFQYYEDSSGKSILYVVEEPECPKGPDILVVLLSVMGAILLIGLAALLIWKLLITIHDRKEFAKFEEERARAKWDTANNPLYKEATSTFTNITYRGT
T1 sequence (P08514 32-887 limits assumed): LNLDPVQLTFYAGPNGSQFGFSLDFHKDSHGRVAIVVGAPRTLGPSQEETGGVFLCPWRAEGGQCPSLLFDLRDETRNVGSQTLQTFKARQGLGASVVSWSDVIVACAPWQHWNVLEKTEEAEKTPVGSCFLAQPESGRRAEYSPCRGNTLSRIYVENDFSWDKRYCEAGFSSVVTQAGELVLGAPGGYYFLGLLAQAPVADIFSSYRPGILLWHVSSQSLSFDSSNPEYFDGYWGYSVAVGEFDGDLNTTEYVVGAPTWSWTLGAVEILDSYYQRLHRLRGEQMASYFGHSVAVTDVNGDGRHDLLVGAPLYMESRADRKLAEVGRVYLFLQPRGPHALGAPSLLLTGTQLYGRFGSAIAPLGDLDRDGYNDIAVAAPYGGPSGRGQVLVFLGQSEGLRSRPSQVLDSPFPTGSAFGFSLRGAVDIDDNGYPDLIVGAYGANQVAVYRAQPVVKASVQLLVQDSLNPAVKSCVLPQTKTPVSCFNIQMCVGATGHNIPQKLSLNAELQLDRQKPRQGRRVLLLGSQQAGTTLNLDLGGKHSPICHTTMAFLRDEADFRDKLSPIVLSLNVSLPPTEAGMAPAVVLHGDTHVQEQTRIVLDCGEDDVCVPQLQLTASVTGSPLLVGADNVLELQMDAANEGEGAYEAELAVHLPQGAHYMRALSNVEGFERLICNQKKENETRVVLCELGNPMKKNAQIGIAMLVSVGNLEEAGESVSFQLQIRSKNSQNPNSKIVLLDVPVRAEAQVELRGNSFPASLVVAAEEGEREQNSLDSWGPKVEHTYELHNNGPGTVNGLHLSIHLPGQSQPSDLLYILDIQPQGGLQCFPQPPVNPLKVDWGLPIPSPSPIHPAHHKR
T1 sequence (P08514 891-1039 limits assumed): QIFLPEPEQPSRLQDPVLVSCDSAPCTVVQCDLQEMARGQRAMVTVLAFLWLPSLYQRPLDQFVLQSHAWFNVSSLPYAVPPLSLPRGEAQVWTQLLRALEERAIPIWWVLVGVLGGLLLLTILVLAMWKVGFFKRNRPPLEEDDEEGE
Conditions: not given
In kind it is protein-complex assay.
Turning to `O=C(O)C[C@H](NC(=O)C1CCCn2c(CCC3CCNCC3)nnc21)c1cccnc1` (stereo not given in full), the IC50 came out at 0.53 nM.
Still for that read-out and setting: under `O=C(O)C[C@H](NC(=O)c1cccn2c(CCC3CCNCC3)nnc12)c1cccnc1` stands 4.2 nM; under `O=C(O)C[C@H](NC(=O)C1CCCn2c(/C=C/C3CCNCC3)nnc21)c1cccnc1` (stereo not given in full), 0.21 nM.
Same read-out and setting: under `O=C(N[C@@H](CNC(=O)C1CCCn2c(/C=C/C3CCNCC3)nnc21)C(=O)O)OCc1ccccc1` (stereo not given in full) stands 0.32 nM; under `O=C(N[C@@H](CNC(=O)[C@@H]1CCCN(C(=O)CCC2CCNCC2)C1)C(=O)O)OCc1ccccc1`, 0.17 nM; under `O=C(O)C[C@H](NC(=O)[C@@H]1CCCN(C(=O)CCC2CCNCC2)C1)c1cccnc1` [ELAROFIBAN], 0.36 nM.

In another data set the target is T1, Integrin alpha-IIb/beta-3. In words: Inhibition of thrombin-induced human gel-filtered platelet aggregation at 50 uM; NA= Inactive. In kind it is functional.
Conditions: not given
As to `O=C(O)C[C@H](NC(=O)c1cccn2c(/C=C/C3CCNCC3)nnc12)c1cccnc1`, the IC50 result is “Not Active”.
